Measurements: EPA's ToxRefDB 2

Key:
rat [1] = conditions: Fertility (Segment I); sprague dawley; Injection; Intravenous; dose end: 20 GD; group: parental; systemic / in life observation / body weight / body weight gain + systemic / in life observation / food consumption / food consumption + …
rat [2] = conditions: Prenatal developmental toxicity study, sprague dawley, Injection, Intravenous, dose end: 17 GD
rabbit = conditions: Prenatal developmental toxicity study, new zealand white, Injection, Intravenous, dose end: 19 GD
[3] = group: developmental, developmental / developmental malformation / bone / incomplete ossification + developmental / developmental malformation / bone / knobby + …
[4] = group: developmental, developmental / developmental malformation / ureter / convoluted
[5] = group: maternal, systemic / in life observation / body weight / body weight gain
[6] = group: maternal, systemic / in life observation / body weight / body weight gain + systemic / in life observation / food consumption / food consumption
[7] = group: developmental, developmental / developmental malformation / heart / enlarged aortic valve
[8] = group: maternal, reproductive / offspring survival early / litter size / litter size

Q: Which LEL (rat [1]) does the source give for `CCOC(=O)c1ccc(C2CCC(NC[C@H](O)COc3ccc(O)c(NS(C)(=O)=O)c3)CC2)cc1.Cl` (stereo partly drawn) here?
A: 160 mg/kg/day

Q: And the LOAEL (rat [1])?
A: 160 mg/kg/day

Q: What about the LOAEL (rat [2]; [3]) of the same compound?
A: 160 mg/kg/day

Q: And the NOAEL (rat [2]; [3])?
A: 40 mg/kg/day

Q: What about the LEL (rat [2]; [4]) of the same compound?
A: 10 mg/kg/day

Q: And the NEL (rat [2]; [4])?
A: < 10 mg/kg/day

Q: And the LEL (rat [2]; [5])?
A: 10 mg/kg/day

Q: And the NEL (rat [2]; [5])?
A: < 10 mg/kg/day

Q: What about the LOAEL (rat [2]; [6]) of the same compound?
A: 160 mg/kg/day

Q: What about the NOAEL (rat [2]; [6]) of the same compound?
A: 40 mg/kg/day

Q: What about the LEL (rabbit; [7]) of the same compound?
A: 160 mg/kg/day

Q: And the LOAEL (rabbit; [7])?
A: > 160 mg/kg/day

Q: What about the NEL (rabbit; [7]) of the same compound?
A: 80 mg/kg/day

Q: What about the NOAEL (rabbit; [7]) of the same compound?
A: ≥ 160 mg/kg/day

Q: And the LOAEL (rabbit; [8])?
A: 80 mg/kg/day

Q: What about the NOAEL (rabbit; [8]) of the same compound?
A: 40 mg/kg/day

Q: What about the LEL (rabbit; group: maternal, reproductive / offspring survival early / litter size / litter size + reproductive / reproductive performance / postimplantation loss / …) of the same compound?
A: 80 mg/kg/day

Q: And the NEL (rabbit; group: maternal, reproductive / reproductive performance / postimplantation loss / postimplantation loss + reproductive / reproductive performance / …)?
A: 40 mg/kg/day
